Columns and labels:
[1] = A. J. GOWER et al., Eur. J. Pharmacol., 222, (1992), 193-203; cited from earlier work
[2] = test system: audiogenic seizures in sound-susceptible mice; assay: Animal model of sound-susceptible mice (audiogenic seizures); format: in vivo; conditions: intraperitoneally 60 minutes before induction of audiogenic seizures; doses given in mol/kg
Outline: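 Genetically sound-sensitive DBA-derived mice (14-28 g, N=10 per group) received test compound or vehicle i.p. 60 min before a 30 s acoustic stimulus (90 dB, 10-20 kHz). Protection against wild running, clonic and tonic convulsions was scored. ED50 with 95% confidence limits was obtained by probit analysis for each phase.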

[3] = molecular target: T1, Levetiracetam Binding Site (LBS), rat cerebral cortex membranes (Rattus norvegicus, UniProt Q02563); assay: LBS binding assay (competitive binding, [3H]-2-[4-(3-azidophenyl)-2-oxo-1-pyrrolidinyl]butanamide); conditions: 4° C., 120 min
T1 construct: The crude membrane pellet obtained is resuspended in 50 mmol/l Tris-HCl (pH 7.4); from tissue; host or cells: rat cerebral cortex crude membranes (male Sprague-Dawley)
T1 sequence (Q02563 whole entry): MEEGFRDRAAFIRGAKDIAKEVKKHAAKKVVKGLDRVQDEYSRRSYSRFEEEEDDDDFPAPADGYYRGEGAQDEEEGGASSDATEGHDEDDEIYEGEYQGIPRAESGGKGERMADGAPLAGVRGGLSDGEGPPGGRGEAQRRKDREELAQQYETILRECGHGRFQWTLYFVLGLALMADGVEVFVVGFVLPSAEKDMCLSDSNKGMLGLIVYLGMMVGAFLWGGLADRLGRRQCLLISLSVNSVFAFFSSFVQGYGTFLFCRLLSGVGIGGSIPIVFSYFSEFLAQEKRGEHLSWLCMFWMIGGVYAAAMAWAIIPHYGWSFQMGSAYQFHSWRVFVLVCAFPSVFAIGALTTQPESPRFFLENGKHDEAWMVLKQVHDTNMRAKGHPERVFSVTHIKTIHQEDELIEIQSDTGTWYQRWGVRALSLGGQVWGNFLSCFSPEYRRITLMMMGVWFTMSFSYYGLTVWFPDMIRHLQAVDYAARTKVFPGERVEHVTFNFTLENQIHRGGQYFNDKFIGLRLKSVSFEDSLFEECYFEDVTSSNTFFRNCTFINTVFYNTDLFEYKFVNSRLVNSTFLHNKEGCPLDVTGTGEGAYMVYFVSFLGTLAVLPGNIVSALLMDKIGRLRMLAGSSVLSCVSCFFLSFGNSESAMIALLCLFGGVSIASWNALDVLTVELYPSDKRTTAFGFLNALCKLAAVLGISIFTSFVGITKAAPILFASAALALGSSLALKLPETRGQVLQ

| Structure (SMILES) | activity in the treatment of epilepsy [1] | melting point | ED50 (dose producing 50% protection against audiogenic seizures) [2] | pKi (affinity for the levetiracetam binding site) [3] |
| --- | --- | --- | --- | --- |
| CC[C@H](C(N)=O)N1CCCC1=O [(R)-α-ethyl-2-oxo-1-pyrrolidine acetamide] | completely lacks activity | – | – | – |
| CC[C@@H](C(N)=O)N1CC(CCC(F)(F)F)CC1=O (some centres unmarked) [Compound 214] | – | 120.9 °C | Particularly promising activity | Particular affinity |
| CC[C@@H](C(N)=O)N1CC(CCC(F)(F)F)CC1=O (some centres unmarked) [Compound 215] | – | 115.9 °C | Particularly promising activity | Particular affinity |
| CCC(C(N)=O)N1CC(c2cccc(C)c2)CC1=O (centres unmarked) [Compound 219] | – | 79.4 °C | Particularly promising activity | Particular affinity |
| CC[C@@H](C(N)=O)N1CC(CC2CC2)CC1=O (some centres unmarked) [Compound 221] | – | 93.9 °C | Particularly promising activity | Particular affinity |
| C=CCC1CC(=O)N([C@@H](CC)C(N)=O)C1 (stereo partly drawn) [Compound 224, (2S)-2-(4-allyl-2-oxo-1-pyrrolidinyl)butanamide] | – | 69.2 °C | Particularly promising activity | Particular affinity |
| C=CCC1CC(=O)N([C@@H](CC)C(N)=O)C1 (stereo partly drawn) [Compound 228, (2S)-2-(4-allyl-2-oxo-1-pyrrolidinyl)butanamide] | – | 58.3 °C | Particularly promising activity | Particular affinity |
| CC[C@@H](C(N)=O)N1CC(CC(C)=O)CC1=O (some centres unmarked) [Compound 229] | – | 90.6 °C | Particularly promising activity | Particular affinity |
| CCCC1(C)CC(=O)N([C@@H](CC)C(N)=O)C1 (some centres unmarked) [Compound 250] | – | 133.3 °C | Particularly promising activity | Particular affinity |
| CCC(C(N)=O)N1CC(C#CBr)CC1=O (centres unmarked) [Compound 264] | – | 173.2 °C | Particularly promising activity | Particular affinity |
| CC[C@@H](C(N)=O)N1CCCC1=O [Levetiracetam, (S)-α-ethyl-2-oxo-1-pyrrolidine acetamide] | effective in the treatment of epilepsy | – | – | – |

From US7358276B2, “2-Oxo-1-pyrrolidine derivatives, processes for preparing them and their uses” (UCB, S.A., priority 2000, dated 2008)
